In ChEMBL document CHEMBL4342522 (J Med Chem, 2020):
Active and inactive are the calls of the source. The calls are words filed in the database; no cut-off is given here.

Experiments:
[1] = Oral bioavailability in rat at 1 mg/kg; type: ADME, organism-based; conditions: in vivo
[2] = biological target: T1, Bromodomain-containing protein 4 (Homo sapiens, UniProt O60885); assay: Inhibition of human N-terminal His6 tagged BRD4 BD2 (352 to 457) residues expressed in Escherichia coli BL21(DE3) cells after 1 hr by TR-FRET assay
[3] = Half life in mouse at 1 mg/kg, po; type: ADME, organism-based; conditions: in vivo
[4] = Half life in rat at 1 mg/kg, iv; type: ADME, organism-based; conditions: in vivo
[5] = Volume of distribution at steady state in dog at 0.1 mg/kg, iv; type: ADME, organism-based, Canis lupus familiaris; conditions: in vivo, read-out: Vdss
SKM-1 [6] = assay: Antiproliferative activity against human SKM1 cells assessed as reduction in cell viability after 5 days by CellTiter-Glo assay; type: functional, cell-based; conditions: SKM-1, 120 h
[7] = Half life in dog at 0.3 mg/kg, po; type: ADME, organism-based, Canis lupus familiaris; conditions: in vivo
[8] = AUC in dog at 0.1 mg/kg, iv; type: ADME, organism-based, Canis lupus familiaris; conditions: in vivo
[9] = AUC in rat at 1 mg/kg, iv; type: ADME, organism-based; conditions: in vivo
[10] = AUC in rat at 1 mg/kg, po; type: ADME, organism-based; conditions: in vivo
[11] = AUC in mouse at 1 mg/kg, iv; type: ADME, organism-based; conditions: in vivo
[12] = Oral bioavailability in monkey at 0.3 mg/kg; type: ADME, organism-based, Macaca mulatta; conditions: rhesus monkey, in vivo
[13] = AUC in dog at 0.3 mg/kg, po; type: ADME, organism-based, Canis lupus familiaris; conditions: in vivo
[14] = Clearance in mouse plasma at 1 mg/kg, iv; type: ADME, organism-based
[15] = Unbound hepatic clearance in monkey liver microsomes; type: ADME, Macaca mulatta, Microsome; conditions: rhesus monkey
[16] = Oral bioavailability in dog at 0.3 mg/kg; type: ADME, organism-based, Canis lupus familiaris; conditions: in vivo
[17] = AUC in mouse at 1 mg/kg, po; type: ADME, organism-based; conditions: in vivo
[18] = Unbound hepatic clearance in rat liver microsomes; type: ADME, Microsome
[19] = Volume of distribution at steady state in mouse at 1 mg/kg, iv; type: ADME, organism-based; conditions: in vivo, read-out: Vdss
[20] = Unbound hepatic clearance in human liver microsomes; type: ADME, Microsome
[21] = Half life in dog at 0.1 mg/kg, iv; type: ADME, organism-based, Canis lupus familiaris; conditions: in vivo
[22] = Half life in monkey at 0.1 mg/kg, iv; type: ADME, organism-based, Macaca mulatta; conditions: rhesus monkey, in vivo
[23] = Clearance in dog plasma at 0.1 mg/kg, iv; type: ADME, organism-based, Canis lupus familiaris
[24] = Clearance in rat plasma at 1 mg/kg, iv; type: ADME, organism-based
[25] = Half life in mouse at 1 mg/kg, iv; type: ADME, organism-based; conditions: in vivo
SKM-1 [26] = assay: Antitumor activity against human SKM1 cells xenografted in SCID mouse assessed as tumor growth inhibition at 1 mg/kg, po qd for 21 days by caliper method; type: functional, organism-based
[27] = Oral bioavailability in mouse at 1 mg/kg; type: ADME, organism-based; conditions: in vivo
[28] = AUC in monkey at 0.1 mg/kg, iv; type: ADME, organism-based, Macaca mulatta; conditions: rhesus monkey, in vivo
[29] = Volume of distribution at steady state in monkey at 0.1 mg/kg, iv; type: ADME, organism-based, Macaca mulatta; conditions: rhesus monkey, in vivo, read-out: Vdss
[30] = Volume of distribution at steady state in rat at 1 mg/kg, iv; type: ADME, organism-based; conditions: in vivo, read-out: Vdss
[31] = Unbound hepatic clearance in mouse liver microsomes; type: ADME, Microsome
[32] = Permeability in dog MDCK cells by PAMPA; type: ADME, cell-based, Canis lupus familiaris; conditions: read-out: permeability
NCI-H1299 = assay: Antiproliferative activity against human H1299 cells assessed as reduction in cell viability after 5 days by CellTiter-Glo assay; type: functional, cell-based; conditions: NCI-H1299, 120 h
[33] = biological target: T1, Bromodomain-containing protein 4; assay: biochemical; type: cell-based
Description: Inhibition of human N-terminal His6 tagged BRD4 BD1 (57 to 168) residues expressed in Escherichia coli BL21(DE3) cells after 1 hr by TR-FRET assay

[34] = Half life in rat at 1 mg/kg, po; type: ADME, organism-based; conditions: in vivo
[35] = Clearance in monkey plasma at 0.1 mg/kg, iv; type: ADME, organism-based, Macaca mulatta; conditions: rhesus monkey
[36] = Fraction of drug absorbed in mouse portal vein in monkey at 1 mg/kg, po; type: ADME, organism-based, Macaca mulatta; conditions: rhesus monkey, in vivo
[37] = Cmax in rat at 1 mg/kg, po; type: ADME, organism-based; set-up: dose 1 mg/kg, route oral; conditions: in vivo
[38] = Cmax in monkey at 1 mg/kg, po; type: ADME, organism-based, Macaca mulatta; set-up: dose 1 mg/kg, route oral; conditions: rhesus monkey, in vivo
[39] = Fraction of drug absorbed in mouse portal vein in rat at 1 mg/kg, po; type: ADME, organism-based; conditions: in vivo
[40] = Tmax in rat at 1 mg/kg, po; type: ADME, organism-based; conditions: in vivo
[41] = Cmax in mouse at 1 mg/kg, po; type: ADME, organism-based; set-up: dose 1 mg/kg, route oral; conditions: in vivo
[42] = Volume of drug distribution in monkey at 0.3 mg/kg, iv; type: ADME, organism-based, Macaca mulatta; conditions: rhesus monkey, in vivo, read-out: Vdss
[43] = Tmax in dog at 1 mg/kg, po; type: ADME, organism-based, Canis lupus familiaris; conditions: in vivo
[44] = Half life in monkey at 0.3 mg/kg, po; type: ADME, organism-based, Macaca mulatta; conditions: rhesus monkey, in vivo
[45] = AUC in monkey at 0.3 mg/kg, po; type: ADME, organism-based, Macaca mulatta; conditions: rhesus monkey, in vivo
[46] = Fraction of drug absorbed in mouse portal vein in dog at 1 mg/kg, po; type: ADME, organism-based, Canis lupus familiaris; conditions: in vivo
[47] = biological target: T2, Bromodomain testis-specific protein (Homo sapiens, UniProt Q58F21); assay: Inhibition of BRDT BD1 (unknown origin) after 1 hr by TR-FRET assay
[48] = Tmax in monkey at 1 mg/kg, po; type: ADME, organism-based, Macaca mulatta; conditions: rhesus monkey, in vivo
[49] = Clearance in monkey plasma at 0.3 mg/kg, iv; type: ADME, organism-based, Macaca mulatta; conditions: rhesus monkey
[50] = Cmax in dog at 1 mg/kg, po; type: ADME, organism-based, Canis lupus familiaris; set-up: dose 1 mg/kg, route oral; conditions: in vivo
[51] = Fraction of drug absorbed in mouse portal vein in mouse at 1 mg/kg, po; type: ADME, organism-based; conditions: in vivo
[52] = Half life in monkey at 0.3 mg/kg, iv; type: ADME, organism-based, Macaca mulatta; conditions: rhesus monkey, in vivo
[53] = biological target: T2, Bromodomain testis-specific protein; assay: Inhibition of BRDT BD2 (unknown origin) after 1 hr by TR-FRET assay
[54] = Tmax in mouse at 1 mg/kg, po; type: ADME, organism-based; conditions: in vivo
[55] = AUC in monkey at 0.3 mg/kg, iv; type: ADME, organism-based, Macaca mulatta; conditions: rhesus monkey, in vivo

## CCNC(=O)c1cc2c(-c3cc(S(=O)(=O)CC)ccc3Oc3c(C)cccc3C)cn(C)c(=O)c2[nH]1
[1]
  bioavailability: 7%
[2]
  Ki: 1.1 nM
[3]
  half-life: 1 h
[4]
  half-life: 1.4 h
[5]
  Vd: 1.7 L/kg
SKM-1 [6]
  IC50: 5.2 nM
[7]
  half-life: 0.3 h
[8]
  AUC: 291 ng·h/mL
[9]
  AUC: 384 ng·h/mL
[10]
  AUC: 27 ng·h/mL
[11]
  AUC: 1440 ng·h/mL
[12]
  bioavailability: 0%
[13]
  AUC: 644 ng·h/mL
[14]
  clearance: 11.5 mL/min/kg
[15]
  CL free: 533 mL/min/kg
[16]
  bioavailability: 74%
[17]
  AUC: 760 ng·h/mL
[18]
  CL free: 1070 mL/min/kg
[19]
  Vd: 0.8 L/kg
[20]
  CL free: 90 mL/min/kg
[21]
  half-life: 3.7 h
[22]
  half-life: 1.5 h
[23]
  clearance: 5.67 mL/min/kg
[24]
  clearance: 45.2 mL/min/kg
[25]
  half-life: 1 h
SKM-1 [26]
  inhibition: Active
[27]
  bioavailability: 53%
[28]
  AUC: 89 ng·h/mL
[29]
  Vd: 2.3 L/kg
[30]
  Vd: 3.5 L/kg
[31]
  CL free: 700 mL/min/kg
[32]
  Papp: 7.68 ×10⁻⁶ cm/s
NCI-H1299
  IC50: 450 nM
[33]
  Ki: 120 nM
[34]
  half-life: 1 h
[35]
  clearance: 20 mL/min/kg

## CCNC(=O)c1cc2c(-c3cc(C(C)(C)O)ccc3Oc3c(C)cc(F)cc3C)cn(C)c(=O)c2[nH]1 [ABBV-744]
[36]
  FaFg: 19
[1]
  bioavailability: 24%
[37]
  Cmax: 12 ng/mL
[3]
  half-life: 2.8 h
[4]
  half-life: 2.9 h
[5]
  Vd: 1.5 L/kg
SKM-1 [6]
  IC50: 6.7 nM
[7]
  half-life: 4.2 h
[38]
  Cmax: 5 ng/mL
[39]
  FaFg: 52
[8]
  AUC: 460 ng·h/mL
[9]
  AUC: 500 ng·h/mL
[40]
  Tmax: 7.5 min
[41]
  Cmax: 210 ng/mL
[10]
  AUC: 120 ng·h/mL
[11]
  AUC: 3800 ng·h/mL
[12]
  bioavailability: 7%
[42]
  Vd: 3.4 L/kg
[13]
  AUC: 1050 ng·h/mL
[14]
  clearance: 4.83 mL/min/kg
[43]
  Tmax: 2.8 h
[16]
  bioavailability: 77%
[17]
  AUC: 2350 ng·h/mL
[18]
  CL free: 200 mL/min/kg
[44]
  half-life: 2.5 h
[19]
  Vd: 1.3 L/kg
[45]
  AUC: 14 ng·h/mL
[20]
  CL free: 143 mL/min/kg
[46]
  FaFg: 87
[47]
  Ki: 917 nM
[48]
  Tmax: 1.5 h
[21]
  half-life: 4.4 h
[49]
  clearance: 25.7 mL/min/kg
[50]
  Cmax: 116 ng/mL
[23]
  clearance: 4 mL/min/kg
[24]
  clearance: 11.2 mL/min/kg
[51]
  FaFg: 81
[25]
  half-life: 3 h
[52]
  half-life: 2 h
[53]
  Ki: 1 nM
[27]
  bioavailability: 58%
[30]
  Vd: 5.3 L/kg
[54]
  Tmax: 6 min
[31]
  CL free: 750 mL/min/kg
[55]
  AUC: 200 ng·h/mL
[32]
  Papp: 2 ×10⁻⁶ cm/s
NCI-H1299
  IC50: 1600 nM
[34]
  half-life: 3.4 h
